The source made the active and inactive calls. No cut-off for these calls is given here.
Assays:
[1] = Retention time of the compound by HPLC analysis; type: physicochemical
HCT-116 [2] = test: Antiproliferative activity against human HCT-116 cells assessed as reduction in cell viability irradiated with 365 nm of UV for 5 mins and incubated in dark for 96 hrs by MTT assay; type: functional, cell-based; settings: HCT-116, light or radiation study
[3] = target: T1, Phosphatidylinositol 4,5-bisphosphate 3-kinase catalytic subunit delta isoform (Homo sapiens, UniProt O00329); test: Inhibition of PI3K delta (unknown origin) using PIP2 as substrate incubated in dark at room temperature for 1 hr in presence of ATP by ADP-Glo luminescent assay
T1 sequence (O00329 whole entry): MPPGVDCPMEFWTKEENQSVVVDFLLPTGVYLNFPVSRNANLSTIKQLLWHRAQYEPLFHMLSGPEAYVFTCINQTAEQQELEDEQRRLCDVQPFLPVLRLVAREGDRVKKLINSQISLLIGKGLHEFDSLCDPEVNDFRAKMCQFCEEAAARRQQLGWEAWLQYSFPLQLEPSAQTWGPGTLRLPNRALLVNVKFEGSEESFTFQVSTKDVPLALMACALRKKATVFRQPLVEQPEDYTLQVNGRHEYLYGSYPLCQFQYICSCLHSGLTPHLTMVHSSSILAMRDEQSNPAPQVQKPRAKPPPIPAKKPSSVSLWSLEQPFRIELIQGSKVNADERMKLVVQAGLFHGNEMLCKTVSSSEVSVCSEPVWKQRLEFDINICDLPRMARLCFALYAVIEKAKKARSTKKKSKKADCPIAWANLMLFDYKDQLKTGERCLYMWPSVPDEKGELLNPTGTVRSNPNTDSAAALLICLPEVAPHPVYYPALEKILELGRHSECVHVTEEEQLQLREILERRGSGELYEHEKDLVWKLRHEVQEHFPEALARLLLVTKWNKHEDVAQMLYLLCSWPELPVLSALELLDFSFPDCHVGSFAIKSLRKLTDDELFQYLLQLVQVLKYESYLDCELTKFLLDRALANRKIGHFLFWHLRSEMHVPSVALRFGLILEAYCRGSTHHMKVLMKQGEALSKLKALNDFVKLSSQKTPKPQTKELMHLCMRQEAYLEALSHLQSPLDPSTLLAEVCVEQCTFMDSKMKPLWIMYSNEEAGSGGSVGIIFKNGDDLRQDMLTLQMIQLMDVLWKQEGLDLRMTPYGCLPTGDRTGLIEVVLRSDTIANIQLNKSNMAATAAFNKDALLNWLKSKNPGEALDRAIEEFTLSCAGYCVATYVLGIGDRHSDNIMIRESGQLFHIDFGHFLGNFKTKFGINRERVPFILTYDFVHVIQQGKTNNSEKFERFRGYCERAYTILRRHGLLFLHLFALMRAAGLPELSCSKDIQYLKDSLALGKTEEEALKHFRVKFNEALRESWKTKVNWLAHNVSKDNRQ

BGC-823 = test: Antiproliferative activity against human BGC-823 cells assessed as reduction in cell viability incubated in dark for 96 hrs by MTT assay; type: functional, cell-based; settings: BGC-823, 96 h
MGC-803 [4] = test: Antiproliferative activity against human MGC-803 cells assessed as reduction in cell viability incubated in dark for 96 hrs by MTT assay; type: functional, cell-based; settings: MGC-803, 96 h
MGC-803 [5] = test: Antiproliferative activity against human MGC-803 cells assessed as reduction in cell viability irradiated with 365 nm of UV for 5 mins and incubated in dark for 96 hrs by MTT assay; type: functional, cell-based; settings: MGC-803, light or radiation study
AGS [6] = test: Antiproliferative activity against human AGS cells assessed as reduction in cell viability incubated in dark for 96 hrs by MTT assay; type: functional, cell-based
AGS [7] = test: Antiproliferative activity against human AGS cells assessed as reduction in cell viability irradiated with 365 nm of UV for 5 mins and incubated in dark for 96 hrs by MTT assay; type: functional, cell-based; settings: light or radiation study
HGC-27 [8] = test: Antiproliferative activity against human HGC-27 cells assessed as reduction in cell viability irradiated with 365 nm of UV for 5 mins and incubated in dark for 96 hrs by MTT assay; type: functional, cell-based; settings: HGC-27, light or radiation study
HCT-116 [9] = test: Antiproliferative activity against human HCT-116 cells assessed as reduction in cell viability incubated in dark for 96 hrs by MTT assay; type: functional, cell-based; settings: HCT-116, 96 h
MG-63 = test: Antiproliferative activity against human MG-63 cells assessed as reduction in cell viability irradiated with 365 nm of UV for 5 mins and incubated in dark for 96 hrs by MTT assay; type: functional, cell-based; settings: MG-63, light or radiation study
[10] = Plasma protein binding in rat at 1 uM by LC-MS/MS analysis; type: ADME, cell-free; settings: read-out: PPB (converted)
[11] = Apparent permeability across basolateral to apical side in human Caco-2 cells at 10 uM incubated for 2 hrs by LC-MS/MS analysis; type: ADME, cell-based
HCT-116 [12] = test: Inhibition of PI3K/AKT signalling pathway in human HCT-116 cells assessed as downregulation of AKT phosphorylation at Ser473 residue at 100 nM irradiated with 365 nm UV light for 5 mins and incubated for 24 hrs by Western blot; type: cell-based
HCT-116 [13] = test: Inhibition of PI3K/AKT signalling pathway in human HCT-116 cells assessed as downregulation of AKT phosphorylation at […] residue at 100 nM irradiated with 365 nm UV light for 5 mins and incubated for 24 hrs by Western blot; type: cell-based
HGC-27 [14] = test: Inhibition of PI3K/AKT signalling pathway in human HGC-27 cells assessed as downregulation of SRP6 phosphorylation at 100 nM irradiated with 365 nm UV light for 5 mins and incubated for 24 hrs by Western blot; type: cell-based
HCT-116 [15] = test: Inhibition of PI3K/AKT signalling pathway in human HCT-116 cells assessed as downregulation of […] phosphorylation at 100 nM incubated for 24 hrs under dark condition by Western blot; type: cell-based
HGC-27 [16] = test: Induction of cell cycle arrest in human HGC-27 cells assessed as accumulation at G0/G1 phase at 100 nM incubated for 24 hrs by flow cytometry; type: functional, cell-based
HCT-116 [17] = test: Induction of apoptosis in human HCT-116 cells assessed as increase in number of cells in sub-G0 phase at 100 nM incubated for 24 hrs by flow cytometry; type: functional, cell-based
HCT-116 [18] = test: Inhibition of colony formation in human HCT-116 cells at 100 nM incubated for 24 hrs by crystal violet staining based assay; type: functional, cell-based
HGC-27 [19] = test: Inhibition of colony formation in human HGC-27 cells at 100 nM incubated for 24 hrs by crystal violet staining based assay; type: functional, cell-based
HGC-27 [20] = test: Inhibition of colony formation in human HGC-27 cells irradiated with 365 nm of UV light for 5 min at 100 nM incubated for 24 hrs by crystal violet staining based assay; type: functional, cell-based
Homo sapiens = species on record: Homo sapiens; test: Anticancer activity against KOES-007 patient derived stomach cancer organoid assessed as inhibition of cell growth irradiated with 365 nm of UV light for 2 mins and incubated for 120 hrs; type: functional, tissue-based
[21] = Plasma protein binding in dog at 1 uM by LC-MS/MS analysis; type: ADME, cell-free, Canis lupus familiaris; settings: read-out: PPB (converted)
[22] = Stability in dog liver microsomes assessed as half life at 1 uM in presence of NADPH measured upto 120 min by LC-MS/MS analysis; type: ADME, Canis lupus familiaris, Microsome

## COc1cc(CN(c2cc(-c3cc(OC4CCOCC4)c4ncnc(C)c4c3)cnc2OC)S(=O)(=O)c2ccc(F)cc2F)c([N+](=O)[O-])cc1OC
[1]
  Retention_time: 4.7 min
HCT-116 [2]
  IC50: 81 nM
[3]
  IC50: 3.01 µM
BGC-823
  IC50: 2360 nM
MGC-803 [4]
  IC50: 1740 nM
MGC-803 [5]
  IC50: 329 nM
AGS [6]
  IC50: 924 nM
AGS [7]
  IC50: 70.3 nM
HGC-27 [8]
  IC50: 13.8 nM
HCT-116 [9]
  IC50: 1460 nM
MG-63
  IC50: 142 nM
[10]
  fraction unbound at 1 µM: 0.006
[11]
  Papp B→A at 2 h, 10 µM: 1.95 ×10⁻⁶ cm/s
HCT-116 [12]
  inhibition: Active
HCT-116 [13]
  inhibition: Active
HGC-27 [14]
  inhibition: Active
HCT-116 [15]
  inhibition: inactive
HGC-27 [16]
  Activity: inactive
HCT-116 [17]
  inhibition: Active
HCT-116 [18]
  inhibition: inactive
HGC-27 [19]
  inhibition: inactive
HGC-27 [20]
  inhibition: Active
Homo sapiens
  Activity: Active
[21]
  fraction unbound at 1 µM: 0.005
[22]
  half-life at 1 µM: 4.62 min
